Test results published in patent US20100190807A1, “CDKI Pathway inhibitors and uses thereof to regulate expression to TAU protein” (Senex Biotechnology, Inc., priority 2008, published 2010).

Molecular target: T1, NFκB (p50 and p65 subunits) (Homo sapiens, UniProt P19838+Q04206)
T1 construct: endogenous in cells; control or TNFα-treated
Experiment: TransAM NFκB p65 and p50 transcription factor assay (oligonucleotide binding)
Type: cell-based
Excerpt: The left set of bars represents cells treated with carrier control, the middle set represents cells treated with SNX2, and the right set represents cells treated with a known inhibitor of NFκB binding (TPCK).
We also tested if these compounds could act as the inhibitors of NFκB, by measuring cellular levels of p50 or p65 subunits binding oligonucleotides containing NFκB consensus binding site, using ACTIVE MOTIF TransAM™ NFκB p65 Chemi and NFκB p50 Chemi Transcription Factor Assay Kits.

T1 sequence (P19838 1-433 limits assumed): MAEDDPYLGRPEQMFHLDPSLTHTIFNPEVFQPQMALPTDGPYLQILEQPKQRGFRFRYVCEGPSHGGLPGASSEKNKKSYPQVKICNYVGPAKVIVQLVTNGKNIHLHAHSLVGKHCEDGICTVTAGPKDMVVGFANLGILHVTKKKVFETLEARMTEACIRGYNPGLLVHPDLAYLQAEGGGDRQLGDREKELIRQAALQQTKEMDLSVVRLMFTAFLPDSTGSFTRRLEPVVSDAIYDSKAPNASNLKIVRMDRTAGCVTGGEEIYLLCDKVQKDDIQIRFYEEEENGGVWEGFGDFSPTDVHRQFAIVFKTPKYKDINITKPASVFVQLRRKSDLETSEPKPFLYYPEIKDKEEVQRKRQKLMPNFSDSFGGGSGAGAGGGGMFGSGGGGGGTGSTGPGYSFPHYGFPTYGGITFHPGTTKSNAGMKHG
T1 sequence (Q04206 whole entry): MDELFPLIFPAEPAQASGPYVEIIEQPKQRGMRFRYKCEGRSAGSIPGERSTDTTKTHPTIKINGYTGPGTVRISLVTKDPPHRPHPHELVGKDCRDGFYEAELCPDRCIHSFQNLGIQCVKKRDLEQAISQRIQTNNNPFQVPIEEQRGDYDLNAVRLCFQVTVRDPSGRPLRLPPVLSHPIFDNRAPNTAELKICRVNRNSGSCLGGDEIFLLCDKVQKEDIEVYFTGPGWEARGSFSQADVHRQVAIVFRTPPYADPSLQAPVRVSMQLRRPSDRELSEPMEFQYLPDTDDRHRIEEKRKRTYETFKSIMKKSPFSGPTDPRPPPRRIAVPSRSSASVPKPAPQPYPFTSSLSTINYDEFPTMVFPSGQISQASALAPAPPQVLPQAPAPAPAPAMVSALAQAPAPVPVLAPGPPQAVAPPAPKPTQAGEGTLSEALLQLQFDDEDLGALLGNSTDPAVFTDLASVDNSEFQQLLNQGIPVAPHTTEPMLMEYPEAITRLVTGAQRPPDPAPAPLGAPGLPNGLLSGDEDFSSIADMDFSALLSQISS

Cc1ccc(S(=O)(=O)N[C@@H](Cc2ccccc2)C(=O)CCl)cc1 [TPCK] was tested, and the “TNFα-induced NFκB activity” value (TNFα-treated cells) was “completely blocks” and the “basal NFκB activity” value (control cells) was “completely blocks”.
